Key:
Test in all cases: NCI 60 cell panel SRB screen
RXF 393 = type: cell-based; conditions: Homo sapiens; for activity at 10 µM: RXF 393, single dose 10 μM, read-out: percent cell growth promotion
DU-145 = type: cell-based; conditions: Homo sapiens; for activity at 10 µM: DU-145, single dose 10 μM, read-out: percent cell growth promotion
HL-60(TB) = type: cell-based; conditions: Homo sapiens; for activity at 10 µM: single dose 10 μM, read-out: percent cell growth promotion
COLO 205 = type: cell-based; conditions: Homo sapiens; for activity at 10 µM: COLO 205, single dose 10 μM, read-out: percent cell growth promotion
HCC-2998 = type: cell-based; conditions: Homo sapiens; for activity at 10 µM: HCC-2998, single dose 10 μM, read-out: percent cell growth promotion
OVCAR-8 = type: cell-based; conditions: Homo sapiens; for activity at 10 µM: OVCAR-8, single dose 10 μM, read-out: percent cell growth promotion
786-0 = type: cell-based; conditions: Homo sapiens; for activity at 10 µM: 786-0, single dose 10 μM, read-out: percent cell growth promotion
SK-MEL-28 = type: cell-based; conditions: Homo sapiens; for activity at 10 µM: SK-MEL-28, read-out: percent cell growth promotion
M14 = type: cell-based; conditions: Homo sapiens; for activity at 10 µM: M14, read-out: percent cell growth promotion
SNB-19 = type: cell-based; conditions: Homo sapiens; for activity at 10 µM: SNB-19, single dose 10 μM, read-out: percent cell growth promotion
HCT-15 = type: cell-based; conditions: Homo sapiens; for activity at 10 µM: HCT-15, single dose 10 μM, read-out: percent cell growth promotion
NCI-H226 = type: cell-based; conditions: Homo sapiens; for activity at 10 µM: NCI-H226, single dose 10 μM, read-out: percent cell growth promotion
HOP-62 = type: cell-based; conditions: Homo sapiens; for activity at 10 µM: HOP-62, single dose 10 μM, read-out: percent cell growth promotion
MALME-3M = type: cell-based; conditions: Homo sapiens; for activity at 10 µM: read-out: percent cell growth promotion
A498 = type: cell-based; conditions: Homo sapiens; for activity at 10 µM: A498, single dose 10 μM, read-out: percent cell growth promotion
SR = type: cell-based; conditions: Homo sapiens; for activity at 10 µM: single dose 10 μM, read-out: percent cell growth promotion
CAKI-1 = type: cell-based, human; conditions: for activity at 10 µM: CAKI-1, single dose 10 μM, read-out: percent cell growth promotion
BT-549 = type: cell-based; conditions: Homo sapiens; for activity at 10 µM: BT-549, read-out: percent cell growth promotion
PC-3 = type: cell-based; conditions: Homo sapiens; for activity at 10 µM: PC-3, single dose 10 μM, read-out: percent cell growth promotion
[1] = 5 log dose, 48 h, read-out: LC50 (the source's name)

Compound `Cc1nnc(Nc2ccc(NC(=O)Nc3ccc(Cl)cc3)cc2)c2ccccc12` [Compound 6e, 1–(4-Chlorophenyl)-3–(4-(4-methylphthalazin-1-ylamino)phenyl)urea] has a GI50 (RXF 393; RXF 393, 5 log dose) of 2.17 µM, an IC (TGI) (RXF 393; RXF 393, 5 log dose) of 4.13 µM and a CC50 (RXF 393; RXF 393, 5 log dose, 48 h, read-out: LC50 (the source's name)) of 7.84 µM. For the same compound, the activity at 10 µM (RXF 393) was -39.7%, the GI50 (DU-145; DU-145, 5 log dose) was 4.77 µM and the IC (TGI) (DU-145; DU-145, 5 log dose) was 19.5 µM. It also gave a CC50 (DU-145; DU-145, 5 log dose, 48 h, read-out: LC50 (the source's name)) of 66.9 µM, an activity at 10 µM (DU-145) of 57.8% and a GI50 (HL-60(TB); 5 log dose) of 2.03 µM. The IC (TGI) (HL-60(TB); 5 log dose) was 4.18 µM, the CC50 (HL-60(TB); [1]) was 8.64 µM and the activity at 10 µM (HL-60(TB)) was -34.8%. For the same compound, the GI50 (COLO 205; COLO 205, 5 log dose) was 2.22 µM, the IC (TGI) (COLO 205; COLO 205, 5 log dose) was 5.29 µM and the CC50 (COLO 205; COLO 205, 5 log dose, 48 h, read-out: LC50 (the source's name)) was 19.2 µM. For the same compound, the activity at 10 µM (COLO 205) was 28.2%, the GI50 (HCC-2998; HCC-2998, 5 log dose) was 2.84 µM and the IC (TGI) (HCC-2998; HCC-2998, 5 log dose) was 8.09 µM. For the same compound, the LC50 (50% lethal concentration) (HCC-2998; HCC-2998, 5 log dose, 48 h) was 27.8 µM, the activity at 10 µM (HCC-2998) was 40.5% and the GI50 (OVCAR-8; OVCAR-8, 5 log dose) was 3.35 µM. The IC (TGI) (OVCAR-8; OVCAR-8, 5 log dose) was 9.32 µM, the CC50 (OVCAR-8; OVCAR-8, 5 log dose, 48 h, read-out: LC50 (the source's name)) was 47.4 µM and the activity at 10 µM (OVCAR-8) was 31.4%. It also gave a GI50 (786-0; 786-0, 5 log dose) of 1.71 µM, an IC (TGI) (786-0; 786-0, 5 log dose) of 3.34 µM and a CC50 (786-0; 786-0, 5 log dose, 48 h, read-out: LC50 (the source's name)) of 6.55 µM. It also gave an activity at 10 µM (786-0) of -27.9%, a GI50 (SK-MEL-28; SK-MEL-28) of 1.63 µM and an IC (TGI) (SK-MEL-28; SK-MEL-28, read-out: TGI) of 3.2 µM. For the same compound, the activity at 10 µM (SK-MEL-28) was -11.9%, the CC50 (SK-MEL-28; SK-MEL-28, 5 log dose, 48 h, read-out: LC50 (the source's name)) was 6.29 µM and the GI50 (M14; M14) was 1.76 µM. The IC (TGI) (M14; M14, read-out: TGI) was 3.57 µM, the activity at 10 µM (M14) was 37.3% and the CC50 (M14; M14, 5 log dose, 48 h, read-out: LC50 (the source's name)) was 7.27 µM. It also gave a GI50 (SNB-19; SNB-19, 5 log dose) of 2.77 µM, an IC (TGI) (SNB-19; SNB-19, 5 log dose) of 8.72 µM and a CC50 (SNB-19; SNB-19, 5 log dose, 48 h, read-out: LC50 (the source's name)) of 56.6 µM. It also gave an activity at 10 µM (SNB-19) of 16.2%, a GI50 (HCT-15; HCT-15, 5 log dose) of 1.91 µM and an IC (TGI) (HCT-15; HCT-15, 5 log dose) of 4.53 µM. For the same compound, the CC50 (HCT-15; HCT-15, 5 log dose, 48 h, read-out: LC50 (the source's name)) was 13.9 µM, the activity at 10 µM (HCT-15) was 6.39% and the GI50 (NCI-H226; NCI-H226, 5 log dose) was 3.61 µM. For the same compound, the IC (TGI) (NCI-H226; NCI-H226, 5 log dose) was 15.9 µM, the CC50 (NCI-H226; NCI-H226, 5 log dose, 48 h, read-out: LC50 (the source's name)) was 64.6 µM and the activity at 10 µM (NCI-H226) was 71.9%. It also gave a GI50 (HOP-62; HOP-62, 5 log dose) of 1.81 µM, an IC (TGI) (HOP-62; HOP-62, 5 log dose) of 3.7 µM and a CC50 (HOP-62; HOP-62, 5 log dose, 48 h, read-out: LC50 (the source's name)) of 7.56 µM. The activity at 10 µM (HOP-62) was 44.2%, the GI50 (MALME-3M; Malme-3M) was 2.17 µM and the IC (TGI) (MALME-3M; Malme-3M, read-out: TGI) was 4.79 µM. It also gave an activity at 10 µM (MALME-3M; Malme-3M) of -9.9%, a CC50 (MALME-3M; MALME-3M, 5 log dose, 48 h, read-out: LC50 (the source's name)) of 20 µM and a GI50 (A498; A498, 5 log dose) of 3.21 µM. The IC (TGI) (A498; A498, 5 log dose) was 10.5 µM, the CC50 (A498; A498, 5 log dose, 48 h, read-out: LC50 (the source's name)) was 38.5 µM and the activity at 10 µM (A498) was 35.4%. For the same compound, the GI50 (SR; 5 log dose) was 2.56 µM, the IC (TGI) (SR; 5 log dose) was 9.55 µM and the CC50 (SR; [1]) was > 100 µM. It also gave an activity at 10 µM (SR) of -3.51%, a TGI (CAKI-1; CAKI-1, 5 log dose) of 12.8 µM and a GI50 (CAKI-1; Homo sapiens, CAKI-1, 5 log dose) of 3.49 µM. For the same compound, the CC50 (CAKI-1; Homo sapiens, CAKI-1, 5 log dose, 48 h, read-out: LC50 (the source's name)) was 43.6 µM, the activity at 10 µM (CAKI-1; Homo sapiens) was 33.9% and the GI50 (BT-549; BT-549) was 2.21 µM. It also gave an IC (TGI) (BT-549; BT-549, read-out: TGI) of 5.55 µM, an activity at 10 µM (BT-549) of 11.4% and a CC50 (BT-549; BT-549, 5 log dose, 48 h, read-out: LC50 (the source's name)) of 66 µM. The GI50 (PC-3; PC-3, 5 log dose) was 3.49 µM, the IC (TGI) (PC-3; PC-3, 5 log dose) was 11.9 µM and the CC50 (PC-3; PC-3, 5 log dose, 48 h, read-out: LC50 (the source's name)) was 62.7 µM. The activity at 10 µM (PC-3) was 22.8%.

With `Cc1nnc(Oc2ccc(NC(=O)Nc3ccc(Cl)cc3)cc2)c2ccccc12` [Compound 7e, 1–(4-Chlorophenyl)-3–(4-(4-methylphthalazin-1-yloxy)phenyl)urea] the activity at 10 µM (RXF 393) was 82%, the activity at 10 µM (DU-145) was 81.4% and the activity at 10 µM (HL-60(TB)) was 80.1%. The activity at 10 µM (COLO 205) was 87.4%, the activity at 10 µM (HCC-2998) was 110% and the activity at 10 µM (OVCAR-8) was 76%. For the same compound, the activity at 10 µM (786-0) was 83.9%, the activity at 10 µM (SK-MEL-28) was 88.3% and the activity at 10 µM (M14) was 79.4%. The activity at 10 µM (SNB-19) was 84.1%, the activity at 10 µM (HCT-15) was 69.5% and the activity at 10 µM (NCI-H226) was 79.1%. For the same compound, the activity at 10 µM (HOP-62) was 71.1%, the activity at 10 µM (MALME-3M; Malme-3M) was 92.6% and the activity at 10 µM (A498) was 51.5%. The activity at 10 µM (SR) was 38.5%, the activity at 10 µM (CAKI-1; Homo sapiens) was 79.7% and the activity at 10 µM (BT-549) was 72%. It also gave an activity at 10 µM (PC-3) of 39%.

From publication PMC6691788, “Design and synthesis of phthalazine-based compounds as potent anticancer agents with potential antiangiogenic activity via VEGFR-2 inhibition” (Journal of Enzyme Inhibition and Medicinal Chemistry, 2019)
